The record followed here is patent US10081624B2, “Heterocyclic compound” (Takeda Pharmaceutical Company Limited, priority 2014, dated 2018).

Molecules are shown by their SMILES.

In the assay the target is T1, HDAC6 enzyme (Homo sapiens, UniProt Q9UBN7).
T1 construct: prepared by transducing full length HDAC1 and HDAC6 genes into Sf-9 insect cells; GST; purchased SignalChem; host or cells: Sf-9 insect cells
T1 sequence (Q9UBN7 1-1215): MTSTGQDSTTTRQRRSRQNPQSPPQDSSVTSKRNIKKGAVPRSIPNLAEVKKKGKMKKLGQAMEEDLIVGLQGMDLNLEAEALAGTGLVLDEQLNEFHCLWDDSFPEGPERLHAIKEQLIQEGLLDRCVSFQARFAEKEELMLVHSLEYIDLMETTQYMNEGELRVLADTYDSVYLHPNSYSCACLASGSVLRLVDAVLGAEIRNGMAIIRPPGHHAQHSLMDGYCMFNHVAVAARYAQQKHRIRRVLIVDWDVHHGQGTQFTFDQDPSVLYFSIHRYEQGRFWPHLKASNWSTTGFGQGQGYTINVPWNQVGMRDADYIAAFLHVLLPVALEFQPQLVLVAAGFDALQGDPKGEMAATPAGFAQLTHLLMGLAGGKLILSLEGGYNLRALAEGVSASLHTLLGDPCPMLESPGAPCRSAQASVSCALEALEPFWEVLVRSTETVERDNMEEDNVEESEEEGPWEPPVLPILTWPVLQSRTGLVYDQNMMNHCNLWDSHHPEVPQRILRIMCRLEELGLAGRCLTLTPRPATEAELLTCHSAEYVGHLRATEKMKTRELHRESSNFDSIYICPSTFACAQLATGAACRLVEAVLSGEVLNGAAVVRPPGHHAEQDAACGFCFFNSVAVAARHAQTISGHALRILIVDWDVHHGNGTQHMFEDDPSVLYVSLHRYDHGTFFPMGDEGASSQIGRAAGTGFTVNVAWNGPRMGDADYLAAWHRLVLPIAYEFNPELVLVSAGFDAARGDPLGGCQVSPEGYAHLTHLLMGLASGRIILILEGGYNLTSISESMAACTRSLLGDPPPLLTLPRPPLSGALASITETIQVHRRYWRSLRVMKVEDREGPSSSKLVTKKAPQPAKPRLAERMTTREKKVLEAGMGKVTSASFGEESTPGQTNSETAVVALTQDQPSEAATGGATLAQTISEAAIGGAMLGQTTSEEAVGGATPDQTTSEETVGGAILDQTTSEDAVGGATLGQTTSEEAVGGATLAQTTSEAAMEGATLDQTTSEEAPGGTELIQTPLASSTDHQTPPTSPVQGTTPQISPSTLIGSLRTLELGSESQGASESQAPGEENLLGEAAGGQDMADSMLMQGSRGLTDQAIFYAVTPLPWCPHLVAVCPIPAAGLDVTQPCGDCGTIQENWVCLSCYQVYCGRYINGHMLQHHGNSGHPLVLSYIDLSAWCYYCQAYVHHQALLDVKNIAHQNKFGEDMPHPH
Briefly: HDAC6 enzyme inhibitory assay (HDAC-Glo I/II Assay kit). It is filed as biochemical. To be noted: 1 μM test compound; read-out: HDAC6 inhibitory rate (%) (1 μM). As for the experimental part:
HDAC1 enzyme and HDAC6 enzyme each prepared by transducing full length HDAC1 and HDAC6 genes into Sf-9 insect cells and purifying by GST affinity column were purchased from SignalChem. Using these enzymes, HDAC1 and/or HDAC6 enzyme inhibitory activities of the compound of the present invention were evaluated. Enzymes were used after preserved at −70° C. HDAC1 or HDAC6 enzyme inhibitory activity of the compound of the present invention was measured using HDAC-Glo™ I/II Assay kit (Promega) according to the following experimental method. The test compound diluted with assay buffer (24 mM Tris-HCl (pH 7.5), 1 mM MgCl2, 0.35 mM KCl, 135 mM NaCl, 0.6 mM Glutathione, 0.01% Tween-20) was added to a 384-well plate by each 2 μL. Then, HDAC1 or HDAC6 enzyme solution diluted with assay buffer was added thereto by each 4 μL, and the plate was incubated at room temperature for 60 min. After incubated, HDAC substrate-Developer solution prepared according to Promega protocol attached to the assay kit was added to the 384-well plate by each 2 μL, and the enzyme reaction was started. After reacting at room temperature for 20 min, luminescence level was measured using plate reader Envision (PerkinElmer). The inhibitory activity of each compound was calculated as a relative activity value when luminescence level in wells without enzyme is considered as 100% inhibition.
Take `COc1cccc(C(=O)N2CCOCC2CNC(=O)c2ccc(-c3noc(C(F)(F)F)n3)cc2)c1` (stereo in doubt) [Example 114, N-(((3R)-4-(3-methoxybenzoyl)morpholin-3-yl)methyl)-4-(5-(trifluoromethyl)-1,2,4-oxadiazol-3-yl)benzamide]: the inhibition at 1 µM turned out to be 92%.

In the case of `N#Cc1ccccc1C(=O)N1CCOCC1CNC(=O)c1ccc(-c2noc(C(F)(F)F)n2)cc1` (stereo in doubt) [Example 115, N-(((3R)-4-(2-cyanobenzoyl)morpholin-3-yl)methyl)-4-(5-(trifluoromethyl)-1,2,4-oxadiazol-3-yl)benzamide], the inhibition at 1 µM amounted to 94%.

Consider `N#Cc1cccc(C(=O)N2CCOCC2CNC(=O)c2ccc(-c3noc(C(F)(F)F)n3)cc2)c1` (stereo in doubt) [Example 116, N-(((3R)-4-(3-cyanobenzoyl)morpholin-3-yl)methyl)-4-(5-(trifluoromethyl)-1,2,4-oxadiazol-3-yl)benzamide], for which the inhibition at 1 µM was found to be 91%. In the case of `N#Cc1ccc(C(=O)N2CCOCC2CNC(=O)c2ccc(-c3noc(C(F)(F)F)n3)cc2)cc1` (stereo in doubt) [Example 117, N-(((3R)-4-(4-cyanobenzoyl)morpholin-3-yl)methyl)-4-(5-(trifluoromethyl)-1,2,4-oxadiazol-3-yl)benzamide], the inhibition at 1 µM stood at 93%. Consider `O=C(NCC1COCCN1C(=O)c1ccncc1)c1ccc(-c2noc(C(F)(F)F)n2)cc1` (stereo in doubt) [Example 120, N-(((3R)-4-isonicotinoylmorpholin-3-yl)methyl)-4-(5-(trifluoromethyl)-1,2,4-oxadiazol-3-yl)benzamide], for which the inhibition at 1 µM stood at 96%. Then `Cc1cc(C(=O)N2CCOCC2CNC(=O)c2ccc(-c3noc(C(F)(F)F)n3)cc2)ccn1` (stereo in doubt) [Example 121, N-(((3R)-4-(2-methylisonicotinoyl)morpholin-3-yl)methyl)-4-(5-(trifluoromethyl)-1,2,4-oxadiazol-3-yl)benzamide], with 87%. Then `O=C(NCC1COCCN1C(=O)Nc1ccccc1)c1ccc(-c2noc(C(F)(F)F)n2)cc1` (stereo not shown) [Example 2, N-phenyl-3-(((4-(5-(trifluoromethyl)-1,2,4-oxadiazol-3-yl)benzoyl)amino)methyl)morpholine-4-carboxamide], with 86%. Then `Cn1ccnc1C(=O)N1CCOCC1CNC(=O)c1ccc(-c2noc(C(F)(F)F)n2)cc1` (stereo not shown) [Example 16, N-((4-((1-methyl-1H-imidazol-2-yl)carbonyl)morpholin-3-yl)methyl)-4-(5-(trifluoromethyl)-1,2,4-oxadiazol-3-yl)benzamide], with 93%; and `Cn1cnc(C(=O)N2CCOCC2CNC(=O)c2ccc(-c3noc(C(F)(F)F)n3)cc2)c1` (stereo not shown) [Example 17, N-((4-((1-methyl-1H-imidazol-4-yl)carbonyl)morpholin-3-yl)methyl)-4-(5-(trifluoromethyl)-1,2,4-oxadiazol-3-yl)benzamide], with 61%; and `Cc1cc(C(=O)N2CCOC[C@@H]2CNC(=O)c2ccc(-c3noc(C(F)(F)F)n3)cc2)cc(O)n1` [Example 50, N-(((3S)-4-(2-hydroxy-6-methylisonicotinoyl)morpholin-3-yl)methyl)-4-(5-(trifluoromethyl)-1,2,4-oxadiazol-3-yl)benzamide], with 95%. As for `O=C(NC[C@H]1COCCN1C(=O)c1cc2ccccc2o1)c1ccc(-c2noc(C(F)(F)F)n2)cc1` [Example 53, N-(((3S)-4-(1-benzofuran-2-ylcarbonyl)morpholin-3-yl)methyl)-4-(5-(trifluoromethyl)-1,2,4-oxadiazol-3-yl)benzamide], the inhibition at 1 µM was found to be 95%. Then `O=C(NC[C@H]1COCCN1C(=O)c1cc2ncccn2n1)c1ccc(-c2noc(C(F)(F)F)n2)cc1` [Example 54, N-(((3S)-4-(pyrazolo[1,5-a]pyrimidin-2-ylcarbonyl)morpholin-3-yl)methyl)-4-(5-(trifluoromethyl)-1,2,4-oxadiazol-3-yl)benzamide], with 95%. For `O=C(NC[C@H]1COCCN1C(=O)C(c1ccccc1)c1ccccc1)c1ccc(-c2noc(C(F)(F)F)n2)cc1` [Example 57, N-(((3S)-4-(diphenylacetyl)morpholin-3-yl)methyl)-4-(5-(trifluoromethyl)-1,2,4-oxadiazol-3-yl)benzamide], the inhibition at 1 µM was determined as 56%.

As to `O=C(NC[C@H]1COCCN1C(=O)COc1ccccc1)c1ccc(-c2noc(C(F)(F)F)n2)cc1` [Example 58, N-(((3S)-4-(phenoxyacetyl)morpholin-3-yl)methyl)-4-(5-(trifluoromethyl)-1,2,4-oxadiazol-3-yl)benzamide], the inhibition at 1 µM was 93%. Then `Cc1cc(C(=O)N2CCOC[C@@H]2CNC(=O)c2ccc(-c3noc(C(F)(F)F)n3)cc2)on1` [Example 62, N-(((3S)-4-((3-methyl-1,2-oxazol-5-yl)carbonyl)morpholin-3-yl)methyl)-4-(5-(trifluoromethyl)-1,2,4-oxadiazol-3-yl)benzamide], with 93%; and `Cn1ccc(C(=O)N2CCOC[C@@H]2CNC(=O)c2ccc(-c3noc(C(F)(F)F)n3)cc2)n1` [Example 65, N-(((3S)-4-((1-methyl-1H-pyrazol-3-yl)carbonyl)morpholin-3-yl)methyl)-4-(5-(trifluoromethyl)-1,2,4-oxadiazol-3-yl)benzamide], with 75%; and `Cn1cc(C(=O)N2CCOC[C@@H]2CNC(=O)c2ccc(-c3noc(C(F)(F)F)n3)cc2)cn1` [Example 66, N-(((3S)-4-((1-methyl-1H-pyrazol-4-yl)carbonyl)morpholin-3-yl)methyl)-4-(5-(trifluoromethyl)-1,2,4-oxadiazol-3-yl)benzamide], with 88%. For `O=C(NC[C@H]1COCCN1C(=O)c1cc[nH]n1)c1ccc(-c2noc(C(F)(F)F)n2)cc1` [Example 71, N-(((3S)-4-(1H-pyrazol-3-ylcarbonyl)morpholin-3-yl)methyl)-4-(5-(trifluoromethyl)-1,2,4-oxadiazol-3-yl)benzamide], the inhibition at 1 µM was determined as 89%. Then `Cc1ccc(C(=O)N2CCOC[C@@H]2CNC(=O)c2ccc(-c3noc(C(F)(F)F)n3)cc2)s1` [Example 72, N-(((3S)-4-((5-methyl-2-thienyl)carbonyl)morpholin-3-yl)methyl)-4-(5-(trifluoromethyl)-1,2,4-oxadiazol-3-yl)benzamide], with 89%; and `Cc1csc(C(=O)N2CCOC[C@@H]2CNC(=O)c2ccc(-c3noc(C(F)(F)F)n3)cc2)c1` [Example 73, N-(((3S)-4-((4-methyl-2-thienyl)carbonyl)morpholin-3-yl)methyl)-4-(5-(trifluoromethyl)-1,2,4-oxadiazol-3-yl)benzamide], with 98%; and `O=C(NC[C@H]1COCCN1C(=O)C1CC1)c1ccc(-c2noc(C(F)(F)F)n2)cc1` [Example 75, N-(((3S)-4-(cyclopropylcarbonyl)morpholin-3-yl)methyl)-4-(5-(trifluoromethyl)-1,2,4-oxadiazol-3-yl)benzamide], with 92%. Then `O=C(NC[C@H]1COCCN1C(=O)CC1CC1)c1ccc(-c2noc(C(F)(F)F)n2)cc1` [Example 76, N-(((3S)-4-(cyclopropylacetyl)morpholin-3-yl)methyl)-4-(5-(trifluoromethyl)-1,2,4-oxadiazol-3-yl)benzamide], with 90%.
